Assay results from PubChem BioAssay AID298 (DTP/NCI, 2004).
Several values for one entry are separate records, joined by “and”; a condition that tells them apart may be missing. Identical values can stand only once. Inconclusive results are not listed.

Test system: MX-1 breast xenograft, intrarenal, nude mice, tumor weight
Assay: NCI In Vivo Anticancer Drug Screen. Data for tumor model Human Mammary Carcinoma MX-1 Xenograft (intrarenal inoculation) in NU/NU BALB/C (nude) mice
Details: endpoint: mean tumor weight change, higher = larger tumour
In short: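 Mice w/ transplanted tumors, drug vs vehicle; endpoint survival or tumor size; value = T/C.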

[1] = dose: 400.0 mg/kg/injection, schedule: Q04DX003 (ip), vehicle: Klucel (hydroxypropylcellulose) (HPC)
[2] = dose: 200.0 mg/kg/injection, schedule: Q04DX003 (ip), vehicle: saline
[3] = dose: 100.0 mg/kg/injection, schedule: Q04DX003 (ip), vehicle: saline with Tween-80
[4] = dose: 150.0 mg/kg/injection, schedule: Q04DX003 (ip), vehicle: saline with Tween-80

Question: Which results are given for `CN(C)CN1C(=O)S/C(=C2\C(=O)N(CN(C)C)c3ccccc32)C1=O`?
Answer: T/C (dose: 100.0 mg/kg/injection, schedule: Q04DX003 (ip), vehicle: Klucel (hydroxypropylcellulose) (HPC)): 102 % of control; T/C (dose: 200.0 mg/kg/injection, schedule: Q04DX003 (ip), vehicle: Klucel (hydroxypropylcellulose) (HPC)): 100 % of control; T/C [1]: 80 % of control

Question: `CC(C)(O)/C=C/C(=O)[C@](C)(O)[C@H]1[C@H](O)C[C@@]2(C)[C@@H]3CC=C4[C@@H](C=C(O)C(=O)C4(C)C)[C@]3(C)C(=O)C[C@]12C` was tested. Which T/C (dose: 0.25 mg/kg/injection, schedule: Q04DX003 (ip), vehicle: water) did it give?
Answer: 155 % of control

Question: What about the T/C (dose: 0.5 mg/kg/injection, schedule: Q04DX003 (ip), vehicle: water) of the same compound?
Answer: 118 % of control

Question: What about the T/C (dose: 1.0 mg/kg/injection, schedule: Q04DX003 (ip), vehicle: water) of the same compound?
Answer: 122 % of control

Question: What about the T/C (dose: 2.0 mg/kg/injection, schedule: Q04DX003 (ip), vehicle: water) of the same compound?
Answer: 86 % of control

Question: With `CN1COc2c(n(C)c(=O)[nH]c2=O)C1` as the compound, how does the T/C (dose: 100.0 mg/kg/injection, schedule: Q04DX003 (ip), vehicle: suspension in saline) read?
Answer: 85 % of control

Question: What about the T/C [2] of the same compound?
Answer: 92 % of control

Question: And the T/C (dose: 200.0 mg/kg/injection, schedule: Q04DX003 (ip), vehicle: suspension in saline)?
Answer: 65 % of control

Question: What about the T/C (dose: 400.0 mg/kg/injection, schedule: Q04DX003 (ip), vehicle: saline) of the same compound?
Answer: 103 % of control

Question: What about the T/C (dose: 400.0 mg/kg/injection, schedule: Q04DX003 (ip), vehicle: suspension in saline) of the same compound?
Answer: 68 % of control

Question: And the T/C (dose: 800.0 mg/kg/injection, schedule: Q04DX003 (ip), vehicle: saline)?
Answer: 102 % of control

Question: What about the T/C (dose: 800.0 mg/kg/injection, schedule: Q04DX003 (ip), vehicle: suspension in saline) of the same compound?
Answer: 72 % of control

Question: `Oc1cccc2ccccc12` was tested. Which T/C (dose: 150.0 mg/kg/injection, schedule: Q04DX003 (ip), vehicle: water) did it give?
Answer: 81 % of control

Question: `COC(=O)c1ccc(N=NN(C)COC(C)=O)cc1` was tested. Which T/C (dose: 60.0 mg/kg/injection, schedule: Q04DX003 (ip), vehicle: Klucel (hydroxypropylcellulose) (HPC)) did it give?
Answer: 50 % of control

Question: What about the T/C (dose: 120.0 mg/kg/injection, schedule: Q04DX003 (ip), vehicle: Klucel (hydroxypropylcellulose) (HPC)) of the same compound?
Answer: 21 % of control

Question: What about the T/C [1] of the same compound?
Answer: 56 % of control and 58 % of control

Question: And the T/C (dose: 666.67 mg/kg/injection, schedule: Q04DX003 (ip), vehicle: Klucel (hydroxypropylcellulose) (HPC))?
Answer: 33 % of control and 40 % of control

Question: With `COc1cc2cc(c1Cl)N(C)C(=O)C[C@H](OC(=O)[C@H](C)N(C)C(C)=O)[C@]1(C)O[C@H]1[C@H](C)[C@@H]1C[C@@](O)(NC(=O)O1)[C@H](OC)C=C/C=C(\C)C2` as the compound, how does the T/C (dose: 12.5 micrograms/kg/injection, schedule: Q01DX010 (sc), vehicle: Klucel (hydroxypropylcellulose) (HPC)) read?
Answer: 152 % of control

Question: What about the T/C (dose: 25.0 micrograms/kg/injection, schedule: Q01DX010 (sc), vehicle: Klucel (hydroxypropylcellulose) (HPC)) of the same compound?
Answer: 73 % of control

Question: And the T/C (dose: 50.0 micrograms/kg/injection, schedule: Q01DX010 (sc), vehicle: Klucel (hydroxypropylcellulose) (HPC))?
Answer: 75 % of control

Question: And the T/C (dose: 100.0 micrograms/kg/injection, schedule: Q01DX010 (sc), vehicle: Klucel (hydroxypropylcellulose) (HPC))?
Answer: 14 % of control

Question: And the T/C (dose: 200.0 micrograms/kg/injection, schedule: Q01DX010 (sc), vehicle: Klucel (hydroxypropylcellulose) (HPC))?
Answer: -78 % of control

Question: `CC(=O)/C(=C\c1ccc(/C=C(\C(C)=O)C(=O)CCN(C)C)cc1)C(=O)CCN(C)C` was tested. Which T/C [3] did it give?
Answer: 122 % of control

Question: What about the T/C (dose: 200.0 mg/kg/injection, schedule: Q04DX003 (ip), vehicle: saline with Tween-80) of the same compound?
Answer: 90 % of control

Question: Which results are given for `CCCCCCCCCCCCCCCCCCOCC(CO)OC` (stereo not given)?
Answer: T/C [4]: 117 % of control; T/C (dose: 300.0 mg/kg/injection, schedule: Q04DX003 (ip), vehicle: saline with Tween-80): 93 % of control; T/C (dose: 600.0 mg/kg/injection, schedule: Q04DX003 (ip), vehicle: saline with Tween-80): 81 % of control; T/C (dose: 1200.0 mg/kg/injection, schedule: Q04DX003 (ip), vehicle: saline with Tween-80): 46 % of control

Question: Which T/C (dose: 50.0 mg/kg/injection, schedule: Q04DX003 (ip), vehicle: saline) does the source give for `COc1ccc(C=C(C(=O)CCN(C)C)C(=O)CCN(C)C)cc1` here?
Answer: 93 % of control

Question: And the T/C (dose: 100.0 mg/kg/injection, schedule: Q04DX003 (ip), vehicle: saline)?
Answer: 101 % of control

Question: What about the T/C [2] of the same compound?
Answer: 96 % of control

Question: Which T/C (dose: 125.0 mg/kg/injection, schedule: Q04DX003 (ip), vehicle: saline with Tween-80) does the source give for `Cc1cnc(/C=N\NC(N)=S)c2cccc(N)c12` here?
Answer: 31 % of control

Question: Which results are given for `Cc1cccc(OCC(O)CN2CC2)c1` (stereo not given)?
Answer: T/C (dose: 50.0 mg/kg/injection, schedule: Q04DX003 (ip), vehicle: saline with Tween-80): 63 % of control; T/C [3]: 62 % of control

Question: With `N=C(N)c1ccc(N=NNc2ccc(C(=N)N)cc2)cc1` as the compound, how does the T/C [4] read?
Answer: 83 % of control

Question: Which results are given for `NC(=O)C1=CC2C3C=CC2(O)C(=O)OC3O1` (stereo not given)?
Answer: T/C (dose: 37.5 mg/kg/injection, schedule: Q04DX003 (ip), vehicle: Klucel (hydroxypropylcellulose) (HPC)): 54 % of control; T/C (dose: 75.0 mg/kg/injection, schedule: Q04DX003 (ip), vehicle: Klucel (hydroxypropylcellulose) (HPC)): 42 % of control

Question: What does the source list for `O=C(Nc1cccc(O)c1)C(Cl)=C(Cl)Cl`?
Answer: T/C (dose: 6.25 mg/kg/injection, schedule: Q04DX003 (ip), vehicle: other): 66 % of control; T/C (dose: 12.5 mg/kg/injection, schedule: Q04DX003 (ip), vehicle: DMSO): 112 % of control; T/C (dose: 12.5 mg/kg/injection, schedule: Q04DX003 (ip), vehicle: other): 68 % of control; T/C (dose: 25.0 mg/kg/injection, schedule: Q04DX003 (ip), vehicle: DMSO): 116 % of control; T/C (dose: 25.0 mg/kg/injection, schedule: Q04DX003 (ip), vehicle: other): 45 % of control; T/C (dose: 50.0 mg/kg/injection, schedule: Q04DX003 (ip), vehicle: DMSO): 47 % of control

Question: How did the T/C (dose: 1.0 mg/kg/injection, schedule: Q01DX010 (sc), vehicle: saline + alcohol) turn out when `COC(=O)[C@@]12OC[C@]34[C@H]([C@@H](O)[C@@H]1O)[C@@]1(C)CC(=O)C(O)=C(C)[C@@H]1C[C@H]3OC(=O)[C@H](OC(=O)/C=C(\C)C(C)C)[C@@H]24` was run?
Answer: 51 % of control

Question: For `Cc1c(-c2ccc(-c3ccccc3F)cc2)nc2ccc(F)cc2c1C(=O)O`, which T/C (dose: 6.9 mg/kg/injection, schedule: Q01DX009 (ip), vehicle: water) is on record?
Answer: 15 % of control and 19 % of control

Question: What about the T/C (dose: 11.5 mg/kg/injection, schedule: Q01DX009 (ip), vehicle: water) of the same compound?
Answer: 8 % of control and 18 % of control

Question: What about the T/C (dose: 19.2 mg/kg/injection, schedule: Q01DX009 (ip), vehicle: water) of the same compound?
Answer: 2 % of control and 12 % of control

Question: What about the T/C (dose: 32.0 mg/kg/injection, schedule: Q01DX009 (ip), vehicle: water) of the same compound?
Answer: 6 % of control and 9 % of control

Question: Which T/C (dose: 4.0 mg/kg/injection, schedule: Q04DX003 (ip), vehicle: water) does the source give for `COc1ccc2[nH]c3ccc4cc[n+](CCN5CCC(C6CCN(CC[n+]7ccc8ccc9[nH]c%10ccc(OC)cc%10c9c8c7)CC6)CC5)cc4c3c2c1` here?
Answer: 100 % of control

Question: What about the T/C (dose: 8.0 mg/kg/injection, schedule: Q04DX003 (ip), vehicle: other) of the same compound?
Answer: 69 % of control

Question: What about the T/C (dose: 8.0 mg/kg/injection, schedule: Q04DX003 (ip), vehicle: water) of the same compound?
Answer: 38 % of control

Question: What about the T/C (dose: 16.0 mg/kg/injection, schedule: Q04DX003 (ip), vehicle: other) of the same compound?
Answer: 92 % of control

Question: And the T/C (dose: 16.0 mg/kg/injection, schedule: Q04DX003 (ip), vehicle: water)?
Answer: 35 % of control

Question: What about the T/C (dose: 23.04 mg/kg/injection, schedule: Q04DX003 (ip), vehicle: other) of the same compound?
Answer: 101 % of control

Question: What about the T/C (dose: 32.0 mg/kg/injection, schedule: Q04DX003 (ip), vehicle: other) of the same compound?
Answer: 86 % of control

Question: What about the T/C (dose: 32.0 mg/kg/injection, schedule: Q04DX003 (ip), vehicle: water) of the same compound?
Answer: 35 % of control

Question: And the T/C (dose: 38.4 mg/kg/injection, schedule: Q04DX003 (ip), vehicle: other)?
Answer: 53 % of control

Question: And the T/C (dose: 64.0 mg/kg/injection, schedule: Q04DX003 (ip), vehicle: other)?
Answer: 32 % of control and 42 % of control

Question: And the T/C (dose: 64.0 mg/kg/injection, schedule: Q04DX003 (ip), vehicle: water)?
Answer: 8 % of control

Question: Which results are given for `COC(=O)CC(N)C(=O)O` (stereo not given)?
Answer: T/C (dose: 300.0 mg/kg/injection, schedule: Q04DX003 (sc), vehicle: saline with Tween-80): 78 % of control; T/C (dose: 600.0 mg/kg/injection, schedule: Q04DX003 (sc), vehicle: saline with Tween-80): 121 % of control; T/C (dose: 1200.0 mg/kg/injection, schedule: Q04DX003 (sc), vehicle: saline with Tween-80): 99 % of control; T/C (dose: 2400.0 mg/kg/injection, schedule: Q04DX003 (sc), vehicle: saline with Tween-80): 101 % of control

Question: How did the T/C (dose: 60.0 mg/kg/injection, schedule: Q04DX003 (ip), vehicle: saline) turn out when `CCN(CC)CC(C)(C)C(=O)/C=C/c1ccc(/C=C/C(=O)C(C)(C)CN(CC)CC)cc1` was run?
Answer: 67 % of control

Question: With `Cc1ccc(S(=O)(=O)NC(=O)C2C(=O)CC3(CCCCC3)CC2=O)cc1` as the compound, how does the T/C (dose: 300.0 mg/kg/injection, schedule: Q04DX003 (sc), vehicle: Klucel (hydroxypropylcellulose) (HPC)) read?
Answer: 81 % of control

Question: And the T/C (dose: 600.0 mg/kg/injection, schedule: Q04DX003 (sc), vehicle: Klucel (hydroxypropylcellulose) (HPC))?
Answer: 95 % of control

Question: What about the T/C (dose: 1200.0 mg/kg/injection, schedule: Q04DX003 (sc), vehicle: Klucel (hydroxypropylcellulose) (HPC)) of the same compound?
Answer: 121 % of control

Question: And the T/C (dose: 2400.0 mg/kg/injection, schedule: Q04DX003 (sc), vehicle: Klucel (hydroxypropylcellulose) (HPC))?
Answer: 117 % of control
